Reference: patent US11109607B2, “Oil-based compositions for enhancing oral health and general wellness in humans” (priority 2013, dated 2021)

Assays:
[1] = tested on: Staphylococcus aureus (ATCC#14154); test: Micro-broth dilution susceptibility testing (MIC/MBC); assay type: cell-based; conditions: for effect against Staphylococcus aureus (in words): ATCC#14154, grown in broth over 48 hours
Procedure: (§1) A micro-broth dilution technique was used to determine the susceptibility of the strains of Staphylococcus aureus. Susceptibility was expressed as minimum inhibitory (MIC) and/or minimum bactericidal (MBC) concentration.
(§2) Various essential oils, carvacrol, and monolaurin were tested alone or in combination for the treatment of Staphylococcus aureus infection. Twelve essential oils were tested in the study: oregano oil, olive oil (the diluent), pumpkin oil, fenugreek oil, myrtle oil, allspice oil, sage oil, lavender oil, bay leaf oil, cumin oil, cinnamon oil, and cassia oil.
(§3) The stock solutions of oregano oil, other essential oils, olive oil, and carvacrol were dissolved in 50% ethanol-Tween 80 solvents. Antibiotics were dissolved in 50% ethanol and used as positive controls. Solvent controls (addition of carrier without essential oil and monolaurin) were also included for reference in addition to regular controls.
(§4) The Sabouraud's glucose (S.g.) broth containing varying amounts (logarithmic, serially and 2-fold diluted) of oregano oil, other essential oils, carvacrol, monolaurin and various controls were inoculated with actively dividing Staphylococcus aureus cells. The cultures were incubated for about 24 hours and about 48 hours at a temperature of about 30° C. on a metabolic rotary shaker (220 rev/min), and the growth was monitored both visually and colorimetrically (at a wavelength of about […]). The minimum inhibitory concentration (MIC) was defined as the lowest concentration required to arrest the growth of the bacteria at the end of 24 hour of incubation. Minimum bactericidal concentration (MBC) was determined by sub-culturing a 0.01 ml aliquot of the medium drawn from the culture tubes after 48 hours on S.g. agar plates and incubated further for bacterial growth. The plates were scored for growth of the bacteria colonies. The lowest concentration of the antimicrobial agent causing negative growth (fewer than three colonies) was considered as MBC. In every case, the MIC and MBC were virtually the same.
A micro dilution study on Staphylococcus aureus (ATCC#14154) grown in broth over 48 hours was performed to determine the comparative effects of various antibiotics and essential oils against Staphylococcus aureus infection at the selected concentrations.

[2] = tested on: Staphylococcus aureus (ATCC#14775); test: Murine systemic bacteremia model, 30-day survival; assay type: in vivo, mice; conditions: for in vivo effect on survival (in words): mice infected with 5xLD50, daily gavage 30 days; for mice surviving for 30 days (survivors/group): second study, groups of eight, 3.2 mg of each agent by gavage, vancomycin 400 μg i.p.; for mice surviving thirty days (survivors/total): summary across the in vivo studies
Procedure: Female BALB/c mice (about 15 grams to 20 grams in weight) were obtained from Taconic Farms (Germantown, N.Y.). The mice were maintained in a controlled environment at about 24° C. with a 12-hour light and 12-hour dark cycle and were acclimatized in the animal facility for about 3-5 days before testing. The mice were housed in groups of five, fed commercial rodent pellets, and given water ad libitum throughout the experiments. The Animal Welfare Board at Georgetown University Medical Center approved the protocol for the entire investigation.
In two separate experiments, groups of mice (6 and 8 respectively) infected with Staphylococcus aureus (5×LD50) were gavaged daily with oregano oil, carvacrol, monolaurin or combined oregano oil-monolaurin in 0.2 ml of olive oil for 30 days. The amount of bacterial agents administered was calculated based on the body weight of the mice. Control mice received daily gavages of either olive oil alone (negative control) or olive oil orally plus vancomycin (400 mcg) i.p. (positive control).
In the first in vivo experiment, the daily dose of oregano oil was either 2.0 μl (1.6 mg) or 4.0 μl (3.2 mg). […] In the second in vivo study, the daily dose of oregano oil was the same as the higher dose used before, i.e., 4.0 μl (3.2 mg). Monolaurin was given at the same dose; and when both agents were combined, the same individual doses were used, i.e., 3.2 mg of each. Both experiments were terminated at the end of 30 days. The body weight, the disease status, and the overall health of the mice during the experiments were recorded. The pathological status of the mice was determined by visual examination of the internal organs after their death or sacrifice at the completion of the experiment. Culturing aliquots of kidney homogenates on S.g. agar plates were tested for the renal burden of Staphylococcus aureus.
Furthermore, the in vivo therapeutic effects of the natural edible oregano oil and one of its major constituents, carvacrol, were examined in a murine systemic bacteremia model. […] Groups of six mice infected with Staphylococcus aureus (ATCC#14775) (5×LD50) were gavaged with varying amounts of oregano oil (2.0 μl 1.6 mg; and 4.0 μl 3.2 mg) or injected i.p. with vancomycin (400 μg) daily for 30 days. […] Fifty percent of the mice (3/6) receiving oregano oil (3.2 mg) survived over the thirty days, while only one of six receiving 1.6 mg oregano oil survived for 30 days. Also, 50% of those receiving vancomycin (400 μg) survived for 30 days, while all in the control group died within a three-day period. […] In contrast, numerous abscesses were noted and renal cultures were positive in all dying mice.
In a separate in vivo study, the effects of using monolaurin, either alone and in combination with oregano oil, were investigated and compared to the effects of oregano oil alone. Groups of eight mice were infected with five times the LD50 (5×LD50) of Staphylococcus aureus (A TIC #14775). Fifty percent of the mice (4/8) injected daily with vancomycin (400 μg i.p.) survived for the thirty days of study in contrast to the control group where all eight mice died within a week's time. In the three test groups, 3/8 survived for 30 days in the oregano oil group (3.2 mg), 4/8 survived in the monolaurin group (3.2 mg), and 5/8 survived in the group receiving the combination of oregano oil (3.2 mg) and monolaurin (3.2 mg). No abscesses were seen on inspection, and no bacterial growth was found in the kidney tissue of the 30-day survivors.

[3] = tested on: Staphylococcus aureus (ATCC#14775); test: Micro-broth dilution susceptibility testing (MIC/MBC); assay type: cell-based; conditions: for killing of Staphylococcus aureus in vitro (summary): summary statement
Procedure: as §1, §2, §3, §4
The micro dilution study was performed with another strain of Staphylococcus aureus (ATCC#14775). Although the results from the two strains (ATCC#14775 and ATCC#14154) were generally similar, there were some minor differences. […] Oregano oil provided efficacy against the ATCC#14775 strain infections at the concentration as low as 0.25 mg oregano oil. Carvacrol provided efficacy against the ATCC#14775 strain infections at a phenol content equivalent to that in 0.5 mg oregano oil.
The in vitro experiment on Staphylococcus aureus (ATCC#14775) was performed to investigate the efficacy of using monolaurin alone, using monolaurin in combination with oregano oil, or using oregano oil alone.

Molecule | effect against Staphylococcus aureus (in words) [1] | in vivo effect on survival (in words) [2] | killing of Staphylococcus aureus in vitro (summary) [3] | mice surviving for 30 days (survivors/group) [2] | mice surviving thirty days (survivors/total) [2] | other results
[H]/N=C(/N)N[C@H]1[C@H](O)[C@@H](O)[C@H](O[C@@H]2O[C@@H](C)[C@](O)(C=O)[C@H]2O[C@@H]2O[C@@H](CO)[C@H](O)[C@@H](O)[C@@H]2NC)[C@@H](N/C(N)=N\[H])[C@@H]1O [Streptomycin, streptomycin] | did not completely kill the bacteria |  |  |  |  | 
Cc1ccc(C(C)C)cc1O [carvacrol] |  | prolonged survival | killed Staphylococcus aureus effectively in vitro |  |  | survival time (none survived beyond) ([2]; first experiment, twelve mice, two doses equivalent to phenol content in 1.6 mg and 3.2 mg oregano oil): ≤ 21 days; renal culture after death ([2]; first in vivo study, carvacrol at phenol-equivalent doses): Staphylococcus aureus was grown out of their kidneys; in vivo effect on survival (in words) ([2]; listed as Carvacrol): delayed death but could not cure the mice; effective phenol content, as equivalent amount of oregano oil ([3]; ATCC#14775, carvacrol expressed as oregano oil equivalent): 0.5 mg; effective concentration, as comparable dose of oregano oil (phenol content) ([1]; ATCC#14154, carvacrol expressed as oregano oil equivalent): 0.5 mg; phenol content needed for the same efficacy as oregano oil ([1]; relative to one oregano oil dosage, strain not specified): twice the phenol content
CCCCCCCCCCCC(=O)OCC(O)CO (stereo not shown) [monolaurin, glycerol monolaurate] |  | protective effect | killed Staphylococcus aureus effectively in vitro | 4/8 | 4/8 | growth after two days of incubation ([3]; ATCC#14775, 0.125 mg of each agent): A few Staphylococcus aureus (ATCC#14775) colonies grew
CN[C@H](CC(C)C)C(=O)N[C@H]1C(=O)N[C@@H](CC(N)=O)C(=O)N[C@H]2C(=O)N[C@H]3C(=O)N[C@H](C(=O)N[C@H](C(=O)O)c4cc(O)cc(O)c4-c4cc3ccc4O)[C@H](O)c3ccc(c(Cl)c3)Oc3cc2cc(c3O[C@@H]2O[C@H](CO)[C@@H](O)[C@H](O)[C@H]2O[C@H]2C[C@](C)(N)[C@H](O)[C@H](C)O2)Oc2ccc(cc2Cl)[C@H]1O [vancomycin] | completely destroyed the bacteria |  |  | 4/8 | 7/14 | mice surviving for 30 days ([2]; first experiment, groups of six, 400 μg i.p. daily): 50%
penicillin | essentially showed no effect |  |  |  |  | 
